Data set [1] concerns CD8+CD45RA+CCR7+CD62L+ T cells. Nature of the data set: Flow cytometry for CD8, CD45RA, CCR7 and CD62L on inhibitor-treated T cells. The class given is cell-based, human. The note with it: cells cultured for 14 days. In short, it runs like this: (§1)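 Donor T cells were isolated from PBMC with CD3 microbeads and activated overnight in XVIVO 15 with IL2 50 IU/ml plus 30 ng/ml anti-CD3/CD28. They were treated with drugs from day 1, with medium and drug refreshed on days 7 and 13. After 13–14 days, cells were stained for CD8, CD45RA, CCR7 and CD62L (4 °C, 1 h) and analysed by flow cytometry.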
A general note: A flow cytometer gives signals particle by particle.

Data set [2] has as its system Pgp+ (DiOC2(3)-dye effluxing) T cells. The data set can be described thus: DiOC2(3) dye efflux flow cytometry of inhibitor-treated T cells. Type of data set: cell-based, human. The conditions noted are these: treatment for 13 days, IL2 + CD3 and CD28 antibodies. In short, it runs like this:
(§2)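 Donor PBMC-derived T cells, stimulated with IL2 (50 IU/ml) and/or CD3/CD28 antibodies (30 ng/ml), were exposed to inhibitors from day 1 for about 13 days with periodic drug re-addition. Cells were loaded with DiOC2(3) (60 ng/ml, 4° C, 40 min), effluxed at 37° C for 90 min, and optionally stained with CD62L-APC. Flow cytometry scored DiOC2(3)-dull (Pgp+) and CD62L+ populations.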

Data set [3] concerns Pgp+ (DiOC2(3)-dye effluxing cells) and CD62L+ T cells. Nature of the data set: DiOC2(3) dye efflux plus CD62L-APC staining, flow cytometry of inhibitor-treated T cells. The class given is cell-based, human. The note with it: treatment for 13 days, IL2 + CD3 and CD28 antibodies. A digest of the protocol: as §2
For data set [4], the system named is CD45RA+CCR7+CD62L+ T cells. The data set can be described thus: Flow cytometry for CD45RA, CCR7 and CD62L on inhibitor-treated T cells (all T cells). The conditions noted are these: cells cultured for 14 days. The class given is cell-based, human. A digest of the protocol: as §1
In data set [5] the test system is Nalm6-GLuc cells. Nature of the data set: Blinatumomab induced cell death by inhibitor-treated T cells, Matador cytotoxicity assay. The class given is cell-based. The conditions noted are these: Blinatumomab 100 ng/million T cells, overnight. The procedure:
After 20 days of treatment with the inhibitors, cells from the preceding experiment were tested for their ability to induce Blinatumomab induced cell death using the Matador cytotoxicity assay. For this purpose, untreated and inhibitors-treated T cells were plated in a 24 well plate at 2×10^5 cells/well either alone or in the presence of 2×10^5 Nalm6-GLuc cells in XVIVO medium without any additional growth factors. Blinatumomab (Blincyto) was added at final concentration of 100 ng/million T cells. Cells were cultured overnight and next day supernatant was collected and assayed using the Matador assay. For the Matador Assay, 15 μl of supernatant was added to 15 μl of XVIVO medium in each well of a 384-well plate and hGLuc assay was done by adding 15 μl of 1:100 CTZ per well in well mode.

The nature of data set [6]: Leukapheresis with and without mobilization and manufacturing of CAR-T/TCR-T cells from cancer patients. Type of data set: in vivo, human. The procedure: A study is conducted to compare the generation of cell therapy products from cancer patients who have received 2 or more cycles of prior chemotherapy. Patients with different types of different cancers (e.g., diffuse large B cell lymphoma, acute B-ALL, CLL, multiple myeloma, breast cancer, ovarian cancer, lung cancer etc.) are eligible. Leukapheresis products are collected from the subjects with and without mobilization with Perixafor (0.24 mg/kg subcutaneously daily on days 1-3). T cells are isolated and used for manufacturing of CAR-T and TCR-T cells using lentiviral mediated gene transduction as described in the preceding sections.

Data set [7] concerns T cells. The data set can be described thus: In vitro expansion of CAR/TCR T cells with bispecific engagers and antigen presenting cells or substrate (CFSE staining). The class given is cell-based, human. The procedure:
Buffy coat cells are obtained from healthy de-identified adult donors from the Blood Bank and used to isolate peripheral blood mononuclear cells (PBMC) by Ficoll-Hypaque gradient centrifugation. PBMC are either used as such or used to isolate T cells using CD3 magnetic microbeads (Miltenyi Biotech) and following the manufacturer's instructions. PBMC or isolated T cells are re-suspended in XVIVO medium (Lonza) supplanted with 10 ng/ml CD3 antibody, 10 ng/ml CD28 antibody and 100 IU recombinant human-IL2. In an alternate embodiment, PBCM or T cells are activated by resuspending them at concentration of 5×10^5 cells/ml in fresh XVIVO media containing Blinatumomab (10 ng/ml) plus irradiated (100 Gy) REC-1 cells (Mantle Cell lymphoma; ATCC Catalog #CRL-3004) at concentration of 5×10^6 cells/ml in the presence of 50 IU recombinant human-IL2. In another alternate embodiment, the cell culture medium further contains a purified CD19×CD28 bispecific antibody (SEQ ID NO: 2708, 2705 or 2706) and/or a CD19×41BB bispecific antibody (SEQ ID NO: 2761, 2762, 2758 or 2764) each at concentration of about 10 ng/ml. Cells are cultured at 37° C., in a 5% CO2 humidified incubator. Cells are activated in the above medium for 1 day prior to infection with lentiviral vectors encoding a CAR or a TCR (e.g., SEQ ID NO: 2822 to 2835) or a TCR (SEQ ID NO: 2836). In general, primary cells (e.g. T cells) are infected in the morning using spin-infection (1800 rpm for 90 minutes at 37° C. with 300 μl of concentrated virus that has been re-suspended in XVIVO medium in the presence of 8 μg/ml of Polybrene® (Sigma, Catalog no. H9268). After the infection, the cells are pelleted and resuspended at concentration of 5×10^5 cells/ml in fresh XVIVO media containing Blinatumomab (10 ng/ml) plus irradiated (100 Gy) REC-1 (Mantle Cell lymphoma; ATCC Catalog #CRL-3004) cells (5×10^6 cells/ml) and 50 IU recombinant human-IL2. Cells are cultured in the above medium for 10-15 days. Culture media is supplemented with fresh REC-1 cells, blinatumomab and IL2 every 2-4 days. […] The expanded CAR-T cells are subsequently used for in vitro cytotoxicity studies, in vivo efficacy studies in NSG mice and clinical trial of patients with cancers expressing the antigens targeted by the CAR/TCR using methods known in the art.
The above experiment is also repeated using CD19+ RAJI and NALM6 cells. […] Thus, mantle cell lymphoma cells and, in particular, REC-1 cells are the preferred antigen presenting cells for expansion of T cells (e.g., CAR-T cells, TCR-T cells and TILs) when used in conjuction with bispecific T cell engagers that has at least one binding domain that binds to an antigen expressed on REC-1 (e.g, CD19, CD20, CD22 and BCMA). […]

On to `CCC(CC)n1ccc2c(C(=O)NCc3c(C)cc(C)[nH]c3=O)cc(C#N)cc21` [EI1], for which the “GATE P4 CD8(PerCP)+, CD45RA(FITC)+, CCR7 (PE)+, CD62L(APC)” value (from here on “GATE P4 CD8(PerCP)+, CD45RA(FITC)+, CCR7”) in data set [1] (500 nM) was 76.19%; in data set [1] (1 μM), 78.47%. Also, the “p2: pgp+ from Live cells” value in data set [2] (500 nM) came to 33.53; in data set [2] (1 μM) it was 59.77. Further, the “p5: double +ve pgp+ and CD62L-APC+ from Live cells” value (shortened to “p5: double +ve pgp+ and CD62L-APC+”) came to 10.2 in data set [3] (500 nM) and 19.21 in data set [3] (1 μM). The results for the “GATE P6 CD45RA(FITC)+, CCR7 (PE)+, CD62L(APC)” value (from here on “GATE P6 CD45RA(FITC)+, CCR7”) in data set [4] (500 nM) and in data set [4] (1 μM) were 67.64% and 66.83%, respectively. Moreover, the “Blinatumomab induced cytotoxicity compared to untreated T cells” value in data set [5] (T cells after 20 days of treatment at 500 nM) is given as “significant increase in cytotoxicity”.

Take `Cc1cc(C)c(CNC(=O)c2cc(-c3ccc(CN4CCOCC4)cc3)cc3c2cnn3C2CCCC2)c(=O)[nH]1` [EPZ005687]: the results for the “GATE P4 CD8(PerCP)+, CD45RA(FITC)+, CCR7” value in data set [1] (10 nM) and in data set [1] (100 nM) were 74.86% and 79.65%, respectively. The “p2: pgp+ from Live cells” value is 23.99 in data set [2] (10 nM) and 16.94 in data set [2] (100 nM). Besides, the “p5: double +ve pgp+ and CD62L-APC+” value in data set [3] (10 nM) is on record as 5.21; in data set [3] (100 nM), 3.87. In addition, the entries for the “GATE P6 CD45RA(FITC)+, CCR7” value in data set [4] (10 nM) and in data set [4] (100 nM) were 64.01% and 69.92%, respectively. Moreover, the “Blinatumomab induced cytotoxicity compared to untreated T cells” value in data set [5] (T cells after 20 days of treatment at 100 nM) was “significant increase in cytotoxicity”.

On to `Cc1cc(=O)n(C)c2cc(N3C(=O)CC[C@H](NS(=O)(=O)CC(C)C)[C@H]3c3ccc(Cl)cc3)ccc12` [LP99], for which the “GATE P4 CD8(PerCP)+, CD45RA(FITC)+, CCR7” value in data set [1] (500 nM) was determined as 79.25%; in data set [1] (1 μM) it was 79.77%. Also, the “p2: pgp+ from Live cells” value in data set [2] (500 nM) was found to be 19.46; in data set [2] (1 μM) it was 20.66. For the same compound, the “p5: double +ve pgp+ and CD62L-APC+” value in data set [3] (500 nM) was determined as 3.52; in data set [3] (1 μM) it was 4.18. Further, the results for the “GATE P6 CD45RA(FITC)+, CCR7” value in data set [4] (500 nM) and in data set [4] (1 μM) were 69.67% and 67.58%, respectively. For the same compound, the “Blinatumomab induced cytotoxicity compared to untreated T cells” value in data set [5] (T cells after 20 days of treatment at 1 μM) is “significant increase in cytotoxicity”.

In the case of `c1cc(CN2CCCNCCNCCCNCC2)ccc1CN1CCCNCCNCCCNCC1` [Perixafor, 1,1′-[1,4-phenylenebis(methylene)]bis [1,4,8,11-tetraazacyclotetradecane]], the “yield of T cells in the initial leukapheresis product” value in data set [6] (cancer patients with 2 or more cycles of prior chemotherapy, with versus without mobilization) is given as “improves the yield”. The “effect on gene transduction, CAR/TCR expression, in vitro and in vivo expansion, cytotoxicity, cytokine production and anti-tumor efficacy of CAR-T/TCR-T products” value in data set [6] (with versus without mobilization) is “no major adverse effect”.

`CCCc1cc(C)[nH]c(=O)c1CNC(=O)c1cc(-c2ccc(N3CCN(C(C)C)CC3)nc2)cc2c1cnn2C(C)C` [UNC1999]: the results for the “GATE P4 CD8(PerCP)+, CD45RA(FITC)+, CCR7” value in data set [1] (100 nM) and in data set [1] (500 nM) were 71.75% and 74.57%, respectively. For the same compound, the “p2: pgp+ from Live cells” value in data set [2] (100 nM) was 36.8; in data set [2] (500 nM), 31.14. Further, the entries for the “p5: double +ve pgp+ and CD62L-APC+” value in data set [3] (100 nM) and in data set [3] (500 nM) were 11.06 and 8.9, respectively. Further, the entries for the “GATE P6 CD45RA(FITC)+, CCR7” value in data set [4] (100 nM) and in data set [4] (500 nM) were 59.08% and 60.97%, respectively.

For BI7273, the entries for the “GATE P4 CD8(PerCP)+, CD45RA(FITC)+, CCR7” value in data set [1] (100 nM) and in data set [1] (500 nM) were 70.33% and 77.81%, respectively. In addition, the “p2: pgp+ from Live cells” value in data set [2] (100 nM) is on record as 16.69; in data set [2] (500 nM) it was 16.34. The “p5: double +ve pgp+ and CD62L-APC+” value in data set [3] (100 nM) is 2.73; in data set [3] (500 nM) it was 2.38. In addition, the “GATE P6 CD45RA(FITC)+, CCR7” value in data set [4] (100 nM) was 57.15%; in data set [4] (500 nM), 61.86%.

Take “Blinatumomab: a CD19×CD3 bispecific antibody”: the “expansion of CAR-T cells” value in data set [7] (10 ng/ml with CD19-ECD beads, CD28 antibody 10 ng/ml and IL2 50 IU, 10-25 days) is listed as “Robust expansion”. Further, in data set [7] (10 ng/ml with irradiated REC-1 cells and 50 IU IL2, 10-15 days), the “expansion of cells, CFSE staining” value is reported as “Robust expansion”. In addition, the “degree of expansion of CAR or TCR expressing T cells” value in data set [7] (co-culture with CD19+ RAJI and NALM6 cells instead of REC-1 cells) is recorded as “less than that observed with REC-1 cells”. Also, the “expansion of CAR-expressing PBMC and/or T cells” value in data set [7] (combination of Blinatumomab, CD19×CD28 bispecific antibody, REC-1 cells and IL2) was “Robust expansion”.

Turning to “GM-CSF: cytokine used as mobilization agent”, in data set [6] (mobilization prior to leukapheresis), the “yield of leukapheresis product for generation of CAR-T cells” value is reported as “improve the yield”.

The values are drawn from patent US20210290676A1, “IMPROVING THE EFFICACY AND SAFETY OF ADOPTIVE CELLULAR THERAPIES” (University of Southern California, priority 2018, published 2021).
